Measured values reported in patent US6005007A, “Retinoids, methods for their production and use” (priority 1997, dated 1999).

How the values were obtained:
RARα = target: T1, RARα (Homo sapiens, UniProt P10276); experiment: Co-transfection assay, RARα agonist activity; assay type: cell-based; set-up: expressed in transfected cells; host or cells: CV-1 (African green monkey kidney fibroblasts); details: CV-1 cells, luciferase reporter, read-out: RARα Pot
T1 sequence (P10276 1-462): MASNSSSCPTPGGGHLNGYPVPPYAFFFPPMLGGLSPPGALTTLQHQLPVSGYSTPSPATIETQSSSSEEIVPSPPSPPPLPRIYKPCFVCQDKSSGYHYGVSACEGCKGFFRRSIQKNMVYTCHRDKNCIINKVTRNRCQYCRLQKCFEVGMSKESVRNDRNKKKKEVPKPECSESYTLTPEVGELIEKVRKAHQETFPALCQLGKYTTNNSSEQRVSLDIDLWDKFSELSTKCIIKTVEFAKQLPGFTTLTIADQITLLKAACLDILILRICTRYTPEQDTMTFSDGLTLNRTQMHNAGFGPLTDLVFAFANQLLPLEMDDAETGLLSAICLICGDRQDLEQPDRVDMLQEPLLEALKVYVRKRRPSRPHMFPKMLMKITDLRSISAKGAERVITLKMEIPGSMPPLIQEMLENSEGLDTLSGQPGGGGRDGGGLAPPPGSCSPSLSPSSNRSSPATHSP

RARβ = target: T2, RARβ (Homo sapiens, UniProt P10826); experiment: Co-transfection assay, RARβ agonist activity; assay type: cell-based; set-up: expressed in transfected cells; host or cells: CV-1 (African green monkey kidney fibroblasts); details: CV-1 cells, luciferase reporter, read-out: RARβ Pot
T2 sequence (P10826 1-448 isoform P10826-2): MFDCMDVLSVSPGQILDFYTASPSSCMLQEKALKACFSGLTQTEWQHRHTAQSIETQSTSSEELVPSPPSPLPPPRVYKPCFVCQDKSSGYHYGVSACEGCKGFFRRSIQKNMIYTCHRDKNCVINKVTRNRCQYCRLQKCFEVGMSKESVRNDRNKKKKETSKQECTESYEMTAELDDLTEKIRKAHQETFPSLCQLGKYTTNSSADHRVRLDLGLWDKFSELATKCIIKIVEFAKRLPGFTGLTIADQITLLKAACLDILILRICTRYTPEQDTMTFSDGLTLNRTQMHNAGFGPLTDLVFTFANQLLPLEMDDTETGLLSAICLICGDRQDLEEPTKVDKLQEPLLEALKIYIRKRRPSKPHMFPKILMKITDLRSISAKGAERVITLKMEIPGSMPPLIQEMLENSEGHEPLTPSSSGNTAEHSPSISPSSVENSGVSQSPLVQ

RXRβ = target: T3, RXRβ (Mus musculus, UniProt P28704); experiment: Receptor binding, RXRβ; details: tritiated retinoid competition
T3 sequence (P28704 1-520): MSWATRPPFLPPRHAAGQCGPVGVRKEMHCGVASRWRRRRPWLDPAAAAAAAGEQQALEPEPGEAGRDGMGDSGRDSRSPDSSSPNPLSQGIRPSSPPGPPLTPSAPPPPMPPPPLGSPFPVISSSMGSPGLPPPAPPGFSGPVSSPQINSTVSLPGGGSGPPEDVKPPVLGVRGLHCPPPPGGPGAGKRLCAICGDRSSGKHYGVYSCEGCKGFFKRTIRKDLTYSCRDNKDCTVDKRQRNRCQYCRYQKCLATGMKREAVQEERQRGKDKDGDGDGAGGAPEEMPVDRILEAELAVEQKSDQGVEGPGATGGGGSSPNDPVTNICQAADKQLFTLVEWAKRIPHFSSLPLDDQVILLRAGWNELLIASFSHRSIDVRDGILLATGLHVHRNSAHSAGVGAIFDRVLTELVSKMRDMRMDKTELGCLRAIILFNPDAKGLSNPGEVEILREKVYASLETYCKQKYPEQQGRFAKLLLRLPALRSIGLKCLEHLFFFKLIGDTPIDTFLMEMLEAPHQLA

RXRγ [1] = target: T4, RXRγ (Mus musculus, UniProt P28705); experiment: Receptor binding, RXRγ; details: tritiated retinoid competition
T4 construct: expressed in transfected cells; host or cells: CV-1 (African green monkey kidney fibroblasts)
T4 sequence (P28705 1-463): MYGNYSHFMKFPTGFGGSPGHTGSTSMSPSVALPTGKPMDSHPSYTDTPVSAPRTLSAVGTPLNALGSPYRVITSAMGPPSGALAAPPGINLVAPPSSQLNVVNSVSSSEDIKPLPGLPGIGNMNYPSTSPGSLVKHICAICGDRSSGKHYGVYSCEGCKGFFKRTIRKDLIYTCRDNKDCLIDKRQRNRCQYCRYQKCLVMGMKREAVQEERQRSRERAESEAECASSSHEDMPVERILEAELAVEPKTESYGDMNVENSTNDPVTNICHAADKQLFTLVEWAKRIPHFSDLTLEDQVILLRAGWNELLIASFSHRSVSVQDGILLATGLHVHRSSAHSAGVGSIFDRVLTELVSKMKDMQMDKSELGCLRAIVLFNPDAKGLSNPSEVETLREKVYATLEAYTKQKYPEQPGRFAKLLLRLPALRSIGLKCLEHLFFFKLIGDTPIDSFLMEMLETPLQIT

RARγ = target: T5, RARγ (Homo sapiens, UniProt P13631); experiment: Receptor binding, RARγ; details: tritiated retinoid competition
T5 sequence (P13631 1-454): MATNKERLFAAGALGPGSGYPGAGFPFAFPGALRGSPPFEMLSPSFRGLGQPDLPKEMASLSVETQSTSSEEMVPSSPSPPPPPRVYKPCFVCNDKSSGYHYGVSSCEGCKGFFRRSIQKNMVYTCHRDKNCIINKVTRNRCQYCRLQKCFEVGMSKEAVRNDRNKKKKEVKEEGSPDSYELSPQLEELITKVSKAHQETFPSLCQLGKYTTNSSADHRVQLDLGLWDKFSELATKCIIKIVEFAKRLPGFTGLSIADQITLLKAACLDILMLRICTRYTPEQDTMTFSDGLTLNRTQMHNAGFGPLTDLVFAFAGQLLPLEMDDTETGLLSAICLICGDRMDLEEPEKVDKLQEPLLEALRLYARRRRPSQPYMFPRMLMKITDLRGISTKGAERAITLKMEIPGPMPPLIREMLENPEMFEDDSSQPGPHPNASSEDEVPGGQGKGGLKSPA

RXRγ [2] = target: T4, RXRγ; experiment: Co-transfection assay, RXRγ agonist activity; assay type: cell-based; details: CV-1 cells, luciferase reporter, read-out: RXRγ Pot

Compound	EC50 (RARα)	EC50 (RARβ)	Kd (RXRβ)	Kd (RXRγ [1])	Kd (RARγ)	EC50 (RXRγ [2])
CC(/C=C/CC1(c2ccc3c(c2)C(C)(C)CCC3(C)C)CC1)=C\C(=O)O [Compound 101, (2E, 4E)-6-[1-(5,5,8,8-Tetramethyl-5,6,7,8-tetrahydronaphtha-len-2-yl)cyclopropanyl]-3-methyl hexadienoic acid]	59 nM	17 nM	6 nM	8 nM	552 nM	14 nM
CC(/C=C/CC1(c2cc(C(C)(C)C)cc3c2CCC3(C)C)CC1)=C\C(=O)O [Compound 107, (2E, 4E)-6-[1-(6-t-butyl-1,1-dimethyl-indan-4-yl)-cyclopropyl]-3-methyl hexadienoic acid]	> 10000 nM	> 10000 nM	15 nM	22 nM	> 5000 nM	20 nM
CC(/C=C/CC1(c2ccc3c(c2)C(C)(C)CCC3(C)C)CCCC1)=C\C(=O)O [Compound 108, (2E, 4E)-6-[(5,5,8,8-Tetramethyl-5,6,7,8-tetrahydronaphtha-len-2-yl)cyclopentane-1-yl]-3-methyl hexadienoic acid]	> 10000 nM	> 10000 nM	357 nM	128 nM	> 5000 nM	66 nM
